Source: patent US9920030B2 (priority 2006, dated 2018)
Read-outs that look alike come from different tables or passages of the source.

Experiments:
Format in all cases: in vivo
[1] = system: Plasmopara vilicola (the causal agent of grape downy mildew); experiment: Test A: grape downy mildew, test suspension sprayed on grape seedlings after inoculation, visual disease rating
Method in brief: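 Curative spray: spores applied first, plants kept 24 h in saturated air at 20 °C and dried before treatment, then 5 days at 20 °C plus 24 h saturated. Suspension: acetone (3% of volume) in 1:1 acetone/water, 250 ppm Trem 014, sprayed to run-off (200 ppm ≈ 500 g/ha); visual 0–100 control rating.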

[2] = system: Phytophthora infestans (the causal agent of tomato late blight); experiment: whole plant or invertebrate
[3] = system: Phytophthora infestans (the causal agent of tomato late blight); experiment: whole plant or invertebrate; remark: listed apart in the source
[4] = compounds without asterisk (application rate not given), 100 = 100% disease control, 0 = no control relative to the controls
[5] = Plasmopara, 144 h, * tested at 40 ppm, read-out: Percent Disease Control, Test A
[6] = Phytophthora infestans, 144 h, read-out: Percent Disease Control, Test B
[7] = Phytophthora infestans, 96 h, read-out: Percent Disease Control, Test C

SMILES	Percent Disease Control, Test A [1, 4] [%]	Percent Disease Control, Test B [2, 4] [%]	Percent Disease Control, Test C [3, 4] [%]	Percent Disease Control, Test A ([1]; * tested at 40 ppm) [%]	Percent Disease Control, Test B ([2]; * tested at 40 ppm) [%]	Percent Disease Control, Test C ([3]; * tested at 40 ppm) [%]	further results
Cc1cc(C(F)(F)F)nn1CC(=O)N1CCC(c2nc(C3=N[C@@H](c4ccccc4)[C@@H](c4ccccc4)N3)cs2)CC1 [Compound 119]	0	82	0	–	–	–	–
Cc1cc(C(F)(F)F)nn1CC(=O)N1CCC(c2nc(-c3ccc(Cl)cc3)cs2)CC1 [Compound 120]	99	88	0	–	–	–	–
Cc1cc(C(F)(F)F)nn1CC(=O)N1CCC(c2nc(-c3ccccc3Cl)cs2)CC1 [Compound 121]	83	47	0	–	–	–	–
Cc1cc(C(F)(F)F)nn1CC(=O)N1CCC(c2nc(-c3ccc(C(F)(F)F)cc3)cs2)CC1 [Compound 122]	99	46	0	–	–	–	–
Cc1cc(C(F)(F)F)nn1CC(=O)N1CCC(c2nc(-c3cccc(Cl)c3)cs2)CC1 [Compound 123]	95	68	0	–	–	–	–
Cc1cc(C(F)(F)F)nn1CC(=O)N1CCC(c2nc(-c3cccnc3)cs2)CC1 [Compound 124]	8	98	26	–	–	–	–
Cc1cc(C(F)(F)F)nn1CC(=O)N1CCC(c2nc(C3=NOC(c4ccc(O)c(O)c4)C3)cs2)CC1 (stereo not shown) [Compound 125]	31	53	0	–	–	–	–
O=C(Cn1nc(C(F)(F)F)cc1Br)N1CCC(c2nc(C3=NOC(c4ccccc4)C3)cs2)CC1 (stereo not shown) [Compound 126, 2-[5-bromo-3-(trifluoromethyl)-1H-pyrazol-1-yl]-1-[4-[4-(4,5-dihydro-5-phenyl-3-isoxazoly)-2-thiazolyl]-1-piperidinyl]ethanone]	100	100	99	–	–	–	Percent Disease Control, Test A ([1]; compounds without asterisk (application rate not given), 100 = 100% disease control, 0 = no control relative to the controls, listed as 11): 99%
Cc1cc(C(F)(F)F)n(CC(=O)N2CCC(c3nc(C4=NOC(c5ccccc5)C4)cs3)CC2)n1 (stereo not shown) [Compound 128, 1-[4-[4-(4,5-dihydro-5-phenyl-3-isoxazolyl)-2-thiazolyl]-1-piperidinyl]-2-[3-methyl-5-(trifluoromethyl)-1H-pyrazol-1-yl]ethanone]	–	–	–	–	–	–	pest or weed control at 40 ppm [1, 5]: 100%; pest or weed control at 40 ppm [2, 6]: 100%; pest or weed control at 40 ppm [3, 7]: 99%
Cc1cc(C(F)(F)F)nn1CC(=S)N1CCC(c2nc(C3=NOC(c4ccccc4)C3)cs2)CC1 (stereo not shown) [Compound 130, 1-[4-[4-(4,5-dihydro-5-phenyl-3-isoxazolyl)-2-thiazolyl]-1-piperidinyl]-2-[5-methyl-3-(trifluoromethyl)-1H-pyrazol-1-yl]ethanethione]	–	–	–	–	–	–	pest or weed control at 10 µg/mL ([1]; Plasmopara, 144 h, ** tested at l0 ppm, read-out: Percent Disease Control, Test A): 100%; pest or weed control at 10 µg/mL [2, 6]: 100%; pest or weed control at 10 µg/mL [3, 7]: 99%
COc1ccccc1C1CC(c2csc(C3CCN(C(=O)Cn4nc(C(F)(F)F)cc4C)CC3)n2)=NO1 (stereo not shown) [Compound 131]	–	–	–	100	100	99	–
Cc1cc(C(F)(F)F)nn1CC(=O)N1CCC(c2nc(C3=NOC(C)(c4cc(Cl)sc4Cl)C3)cs2)CC1 (stereo not shown) [Compound 132]	–	–	–	85	100	91	–
Cc1ccc(C)c(C2CC(c3csc(C4CCN(C(=O)Cn5nc(C(F)(F)F)cc5C)CC4)n3)=NO2)c1 (stereo not shown) [Compound 133]	–	–	–	100	100	99	–
COC(=O)c1ccc(C2CC(c3csc(C4CCN(C(=O)Cn5nc(C(F)(F)F)cc5C)CC4)n3)=NO2)cc1 (stereo not shown) [Compound 134]	–	–	–	90	100	66	–
Cc1ccc(C2CC(c3csc(C4CCN(C(=O)Cn5nc(C(F)(F)F)cc5C)CC4)n3)=NO2)c(C)c1 (stereo not shown) [Compound 136]	–	–	–	99	100	99	–
Cc1cc(C(F)(F)F)nn1CC(=O)N1CCC(c2nc(C3=NOC4(CCOc5ccccc54)C3)cs2)CC1 (stereo not shown) [Compound 137, 1-[4-[4-(2,3-dihydrospiro[4H-1-benzopyran-4,5′(4′H)-isoxazol]-3′-yl)-2-thiazolyl]-1-piperidinyl]-2-[5-methyl-3-(trifluoromethyl)-1H-pyrazol-1-yl]ethanone]	–	–	–	–	–	–	pest or weed control at 40 ppm [1, 5]: 100%; pest or weed control at 40 ppm [2, 6]: 100%; pest or weed control at 40 ppm [3, 7]: 99%
Cc1cc(C(F)(F)F)nn1CC(=O)N1CCC(c2nc(C3=NOC4(CCC(C(C)(C)C)CC4)C3)cs2)CC1 (stereo not shown) [Compound 138]	–	–	–	93	100	99	–
Cc1cc(C(F)(F)F)nn1CC(=O)N1CCC(c2nc(C3=NOC(c4ccccc4)(c4ccccc4)C3)cs2)CC1 [Compound 139]	–	–	–	87	98	87	–

SMILES	Percent Disease Control, Test A [1, 4] [%]	Percent Disease Control, Test B [2, 4] [%]	Percent Disease Control, Test C [3, 4] [%]	Percent Disease Control, Test A ([1]; * tested at 40 ppm) [%]	Percent Disease Control, Test B ([2]; * tested at 40 ppm) [%]	Percent Disease Control, Test C ([3]; * tested at 40 ppm) [%]	further results
COc1ccccc1C1(C)CC(c2csc(C3CCN(C(=O)Cn4nc(C(F)(F)F)cc4C)CC3)n2)=NO1 (stereo not shown) [Compound 140]	–	–	–	98	100	57	–
COCC1(c2ccccc2)CC(c2csc(C3CCN(C(=O)Cn4nc(C(F)(F)F)cc4C)CC3)n2)=NO1 (stereo not shown) [Compound 141]	–	–	–	99	100	99	–
CSCC1(c2ccccc2)CC(c2csc(C3CCN(C(=O)Cn4nc(C(F)(F)F)cc4C)CC3)n2)=NO1 (stereo not shown) [Compound 142]	–	–	–	97	100	98	–
Cc1cc(C(F)(F)F)nn1CC(=O)N1CCC(c2nc(C3=NOC(CS(C)(=O)=O)(c4ccccc4)C3)cs2)CC1 (stereo not shown) [Compound 143]	–	–	–	99	100	99	–
Cc1cc(C(F)(F)F)nn1CC(=O)N1CCC(c2nc(C3=NOC(C[S+](C)[O-])(c4ccccc4)C3)cs2)CC1 (stereo not shown) [Compound 144]	–	–	–	99	100	93	–
Cc1cc(C(F)(F)F)nn1CC(=O)N1CCC(c2nc(C3=CC(C)(c4ccccc4)OC3=O)cs2)CC1 (stereo not shown) [Compound 145]	17	58	0	–	–	–	–
Cc1c(C2(C)CC(c3csc(C4CCN(C(=O)Cn5nc(C(F)(F)F)cc5C)CC4)n3)=NO2)sc2cccc(Cl)c12 (stereo not shown) [Compound 146]	83	100	53	–	–	–	–
Cc1cc(C(F)(F)F)nn1CC(=O)N1CCC(c2nc(C3=NOC(C)(c4csc5ccccc45)C3)cs2)CC1 (stereo not shown) [Compound 147]	–	–	–	100	100	95	–
Cc1cc(C(F)(F)F)nn1CC(=O)N1CCC(c2nc(C3=NOC(c4ccsc4)C3)cs2)CC1 (stereo not shown) [Compound 148]	–	–	–	–	–	–	Percent Disease Control, Test A ([1]; ** tested at l0 ppm): 100%; Percent Disease Control, Test B ([2]; ** tested at l0 ppm): 100%; Percent Disease Control, Test C ([3]; ** tested at l0 ppm): 99%
Cc1cc(C(F)(F)F)nn1CC(=O)N1CCN(c2nc(C3=NOC(c4ccccc4)C3)cs2)CC1 (stereo not shown) [Compound 154, 1-[4-[4-(4,5-dihydro-5-phenyl-3-isoxazolyl)-2-thiazolyl]-1-piperazinyl]-2-[5-methyl-3-(trifluoromethyl)-1H-pyrazol-1-yl]ethanone]	–	–	–	–	–	–	pest or weed control at 40 ppm [1, 5]: 90%; pest or weed control at 40 ppm [2, 6]: 100%; pest or weed control at 40 ppm [3, 7]: 99%
CC(=O)OCC1(c2ccccc2)CC(c2csc(C3CCN(C(=O)Cn4nc(C(F)(F)F)cc4C)CC3)n2)=NO1 (stereo not shown) [Compound 156]	–	–	–	100	100	99	–
Cc1cc(C(F)(F)F)nn1CC(=O)N1CCC(c2nc(C3=NOC(CO)(c4ccccc4)C3)cs2)CC1 (stereo not shown) [Compound 159]	94	100	99	–	–	–	–
Cc1cc(C(F)(F)F)nn1CC(=O)N1CCC(c2nc(Cn3ccc(-c4ccccc4)n3)cs2)CC1 [Compound 160]	68	80	17	–	–	–	–
Cc1ccccc1[C@H]1CC(c2csc(C3CCN(C(=O)Cn4nc(C(F)(F)F)cc4C)CC3)n2)=NO1 [Compound 161, 1-[4-[4-[(5R)-4,5-dihydro-5-(2-methylphenyl)-3-isoxazolyl]-2-thiazolyl]-1-piperidinyl]-2-[5-methyl-3-(trifluoromethyl)-1H-pyrazol-1-yl]ethanone]	–	–	–	–	–	–	pest or weed control at 40 ppm [1, 5]: 100%; pest or weed control at 40 ppm [2, 6]: 100%; pest or weed control at 40 ppm [3, 7]: 99%
Cc1cc(C(F)(F)F)nn1CC(=O)N1CCC(c2nc(C3=NOC(c4cccs4)C3)cs2)CC1 (stereo not shown) [Compound 162]	–	–	–	100	100	99	–
Cc1cc(C)n(CC(=O)N2CCC(c3nc(C4=NO[C@]5(CCc6ccccc65)C4)cs3)CC2)n1 [Compound 165]	–	–	–	–	–	–	Percent Disease Control, Test A ([1]; ** tested at l0 ppm): 99%; Percent Disease Control, Test B ([2]; ** tested at l0 ppm): 100%; Percent Disease Control, Test C ([3]; ** tested at l0 ppm): 99%
O=C(Cn1nc(Cl)cc1Cl)N1CCC(c2nc(C3=NOC(c4ccccc4)C3)cs2)CC1 (stereo not shown) [Compound 166]	–	–	–	–	–	–	Percent Disease Control, Test A ([1]; ** tested at l0 ppm): 100%; Percent Disease Control, Test B ([2]; ** tested at l0 ppm): 100%; Percent Disease Control, Test C ([3]; ** tested at l0 ppm): 98%
